Where a name gives a salt, the structure may show the parent alone.
Experiments:
[1] = tested on: edema formation induced using histamine as an agonist; assay: Miles assay with histamine as agonist; assay type: in vivo, Sprague-Dawley rats; details: 1.5 mg/kg; histamine 10 μg/injection site; vehicle 12
Procedure: Sprague-Dawley rats were first injected IV with vehicle alone or test agent, followed by IV injection of Evans blue dye, followed by intradermal injections of saline and VEGF (200 ng/injection site) along both shaved flanks. After 45 min, intradermal injection sites were photographed and then scored by a blinded observer for extravasation of Evans blue dye into the dermis (dermal bluing) according to a 4 point scoring system (3=maximal bluing, ≧75% of response in vehicle-treated animals; 2=medium bluing, >25% but <75% of vehicle-treated animals; 1=minimal bluing, ≦25% of vehicle-treated animals; 0=bluing equivalent to saline injection sites on same animal). Individual scores for 4 injection sites (from 2 separate animals) were summed and are shown as a scale of 0-12, with a lower score indicating the greater anti-edema activity; note that all vehicle-treated groups score a value of 12, based on the scoring system outlined above.
The ability of test agents to influence edema induced by agonists other than VEGF was also tested. Compounds cited in this application inhibited edema formation induced using histamine as an agonist, for example, as shown below.
The ability of test agent to influence vascular edema was tested as above, except that the ability to block edema was tested using either VEGF or histamine as the agonist (200 ng and 10 μg/injection site, respectively).

[2] = tested on: Lewis lung carcinoma cells; assay: Lewis lung carcinoma lung metastases model, alone or with doxorubicin; assay type: in vivo, Balb/C mice; details: I.P. every 3 days for 3 cycles
Procedure: (§1) Syngeneic Lewis lung carcinoma cells were injected I.V. in order to establish lung metastases in Balb/C mice. Beginning 10 days after cells were injected, doxorubicin (3 mg/kg) and/or 6,7-bis(4-hydroxyphenyl)-pteridin-4-ylamine, sulfate salt (various doses as shown) was given I.P. every 3 days for 3 cycles. Animals were sacrificed at day 20, lungs were collected, and weighed. Net tumor burden is the weight of tumor-bearing lungs minus the average weight of normal control lungs. N=5/group, p<0.02.
as §1, with “The following experiments show the use of vasculostatic agents of the invention alone and in combination with chemotherapeutic agents for treatment of cancer. […] In the experiment shown in FIG. 2, syngeneic” for “Syngeneic”, “mgikg)” for “mg/kg)”, “salt, (compound A—various” for “salt (various”

SMILES: Nc1ncnc2nc(-c3ccc(O)cc3)c(-c3ccc(O)cc3)nc12 [compound A, 6,7-bis(4-hydroxyphenyl)-pteridin-4-ylamine sulfate salt]
- Score with histamine as agonist (scale of 0-12) [1]: 3
- reduction of tumor burden as a stand alone agent ([2]; lungs weighed at day 20): 25%
- reduction of tumor burden in combination with doxorubicin ([2]; doxorubicin 3 mg/kg, day 20): greater than 90%
